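Following 48 hours of exposure in 96-well plates, responses at five concentrations were used to interpolate endpoints linearly. TGI is the concentration that stops growth completely.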
Key:
Experiment in all cases: DTP human tumour cell line panel, 48 h
[1] = tested on: UACC-62 melanoma
[2] = tested on: NCI-H226 lung
[3] = tested on: MOLT-4 leukemia
[4] = tested on: RPMI-8226 leukemia
[5] = tested on: OVCAR-4 ovarian
[6] = tested on: HOP-62 NSCLC
[7] = tested on: SR leukemia
[8] = tested on: OVCAR-8 ovarian
[9] = tested on: MDA-N
[10] = tested on: NCI-H23 lung
[11] = tested on: SN12C renal
[12] = tested on: HT29 colon
[13] = tested on: M14 melanoma
[14] = tested on: TK-10 renal
[15] = tested on: ACHN renal
[16] = tested on: MDA-MB-435
[17] = tested on: MCF7 breast
[18] = tested on: NCI/ADR-RES ovarian
[19] = tested on: KM12 colon
[20] = tested on: IGROV1 ovarian
[21] = tested on: SF-295 CNS
[22] = tested on: HCC-2998 colon
[23] = tested on: K-562 leukemia
[24] = tested on: COLO 205 colon
[25] = tested on: HCT-116 colon
[26] = tested on: MDA-MB-231 breast
[27] = tested on: DU-145 prostate
[28] = tested on: HS 578T breast
[29] = tested on: CAKI-1 renal
[30] = tested on: U251 CNS
[31] = tested on: OVCAR-3 ovarian
[32] = tested on: CCRF-CEM leukemia
[33] = tested on: HOP-92 NSCLC
[34] = tested on: NCI-H460 lung
[35] = tested on: SW-620 colon
[36] = tested on: A549 NSCLC
[37] = tested on: HL-60(TB) leukemia
[38] = tested on: EKVX NSCLC
[39] = tested on: MALME-3M melanoma
[40] = tested on: SF-539 CNS
[41] = tested on: HCT-15 colon
[42] = tested on: BT-549 breast
[43] = tested on: SK-MEL-5 melanoma
[44] = tested on: SF-268 CNS
[45] = tested on: PC-3 prostate
[46] = tested on: SK-MEL-2 melanoma
[47] = tested on: 786-0 renal
[48] = tested on: NCI-H522 lung
[49] = tested on: RXF 393 renal
[50] = tested on: SK-OV-3 ovarian
[51] = tested on: OVCAR-5 ovarian
[52] = tested on: T-47D breast
[53] = tested on: SNB-75 CNS
[54] = tested on: SNB-19 CNS
[55] = tested on: SK-MEL-28 melanoma
[56] = tested on: UACC-257 melanoma
[57] = tested on: LOX IMVI melanoma
[58] = tested on: A498 renal
[59] = tested on: UO-31 renal

Measured: TGI

COc1ccc(C2SC(N)=Nc3c2c(C)nn3C(=O)c2ccc(Cl)cc2)cc1OC (centres undefined)
> 10 µM: [1] | [2] | [3] | [4] | [5] | [6] | [7] | [8] | [9] | [10] | [11] | [12] | [13] | [14] | [15] | [16] | [17] | [18] | [19] | [20] | [21] | [22] | [23] | [24] | [25] | [26] | [27] | [28] | [29] | [30] | [31] | [32] | [33] | [34] | [35] | [36] | [37] | [38] | [39] | [40] | [41] | [42] | [43] | [44] | [45] | [46] | [47] | [48] | [49] | [50] | [51] | [52] | [53] | [54] | [55] | [56] | [57]

CCOC(=O)/C=C(/C=C\COC1CCCCO1)c1ccccc1 (centres undefined)
49.5 µM: [11]
59.9 µM: [8]
85.7 µM: [55]
72.3 µM: [52]
80.4 µM: [35]
29.5 µM: [25]
79.3 µM: [19]
95.7 µM: [18]
53.8 µM: [7]
30.9 µM: [57]
80.8 µM: [31]
55.3 µM: [49]
76.1 µM: [21]
44.2 µM: [37]
88.6 µM: [1]
> 100 µM: [2] | [4] | [5] | [6] | [9] | [10] | [13] | [14] | [15] | [16] | [17] | [20] | [22] | [23] | [24] | [26] | [27] | [28] | [58] | [29] | [32] | [34] | [36] | [38] | [39] | [41] | [42] | [59] | [43] | [44] | [45] | [46] | [50] | [51] | [54] | [56]
69.7 µM: [53]
83.5 µM: [48]
80.3 µM: [3]
62.7 µM: [47]
29.2 µM: [12]
96 µM: [30]

— PubChem BioAssay (NCI)
